Patent US8524917B2, “6-substituted indole-3-carboxylic acid amide compounds having sphingosine-1-phosphate (S1P) receptor antagonist biological activity” (Allergan, Inc., priority 2007, dated 2013)
Read-outs that look alike come from different tables or passages of the source.

Target: human S1P3 receptor (Homo sapiens (Human), UniProt Q99500)
Test: Activation or block of activation of human S1P3 receptor, Ca+2 FLIPR assay
Type: cell-based
Method: Compounds were assessed for their ability to activate or block activation of the human S1P3 receptor in T24 cells stably expressing the human S1P3 receptor. Ten thousand cells/well were plated into 384-well poly-D-lysine coated plates one day prior to use. The growth media for the S1P3 receptor expressing cell line was McCoy's 5A medium supplemented with 10% charcoal-treated fetal bovine serum (FBS), 1% antibiotic-antimycotic and 400 μg/ml geneticin. On the day of the experiment, the cells were washed twice with Hank's Balanced Salt Solution supplemented with 20 mM HEPES (HBSS/Hepes buffer). […] Extracellular dye was removed by washing the cell plates four times prior to placing the plates in the FLIPR (Fluorometric Imaging Plate Reader, Molecular Devices). Ligands were diluted in HBSS/Hepes buffer and prepared in 384-well microplates. The positive control, Sphingosine-1-Phosphate (S1P), was diluted in HBSS/Hepes buffer with 4 mg/ml fatty acid free bovine serum albumin. The FLIPR transferred 12.5 μl from the ligand microplate to the cell plate and took fluorescent measurements for 75 seconds, taking readings every second, and then for 2.5 minutes, taking readings every 10 seconds. […] IC50 values were determined through a […] analysis using the Levenburg Marquardt algorithm.

[1] = T24 cells stably expressing the human S1P3 receptor, FLIPR Ca+2 response, 0.61 nM to 10,000 nM, read-out: S1P3 IC50
[2] = T24 cells stably expressing the human S1P3 receptor, value in brackets
[3] = T24 cells stably expressing the human S1P3 receptor, second concentration in the cell, read-out: S1P3 Kb

Sequence of human S1P3 receptor (Q99500 whole entry): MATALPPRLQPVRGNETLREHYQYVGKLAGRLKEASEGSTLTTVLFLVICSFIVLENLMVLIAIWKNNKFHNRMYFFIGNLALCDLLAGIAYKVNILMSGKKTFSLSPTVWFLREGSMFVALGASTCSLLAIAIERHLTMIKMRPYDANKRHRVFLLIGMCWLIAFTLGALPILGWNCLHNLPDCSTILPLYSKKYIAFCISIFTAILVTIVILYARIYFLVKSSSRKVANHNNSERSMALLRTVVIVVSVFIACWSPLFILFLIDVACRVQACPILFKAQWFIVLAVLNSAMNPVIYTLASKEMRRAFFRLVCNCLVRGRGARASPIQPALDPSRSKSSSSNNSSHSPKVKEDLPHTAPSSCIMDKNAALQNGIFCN

## CC(C)c1c(C(=O)NCc2ccc(F)c(F)c2)c2ccc(C3=NCCO3)cc2n1Cc1ccccc1 [Compound 70, 1-Benzyl-N-(3,4-difluorobenzyl)-6-(4,5-dihydrooxazol-2-yl)-2-isopropyl-1H-indole-3-carboxamide]
  S1P3 (% inh): 36 nM (100) %
read-out: S1P3 IC50
  IC50: 36 nM

## CC(=O)c1c(C(=O)NCc2ccc(F)c(F)c2)c2ccc(OC(C)C)cc2n1Cc1ccccn1 [Compound 109, 2-Acetyl-N-(3,4-difluorobenzyl)-6-isopropoxy-1-(pyridin-2-ylmethyl)-1H-indole-3-carboxamide]
[1]
  IC50: 21 nM
[2]
  S1P3 (% inh): 99%

## CC(C)C(=O)Oc1ccc2c(C(=O)NCc3ccc(F)c(F)c3)c(C(C)C)n(Cc3ccccc3)c2c1 [Compound 25, 1-Benzyl-3-(3,4-difluorobenzylcarbamoyl)-2-isopropyl-1H-indol-6-yl Isobutyrate]
  S1P3 (% inh): 14 nM (100) %
read-out: S1P3 IC50
  IC50: 14 nM

## CC(C)c1c(C(=O)NCc2ccc(F)c(F)c2)c2ccc(C3=N[C@@H](C)CO3)cc2n1Cc1ccccc1 [Compound 76, (S)-1-Benzyl-N-(3,4-difluorobenzyl)-2-isopropyl-6-(4-methyl-4,5-dihydrooxazol-2-yl)-1H-indole-3-carboxamide]
[1]
  IC50: 33 nM
[2]
  S1P3 (% inh): 99%

## CC(C)c1c(C(=O)NCc2cc(F)cc(F)c2)c2ccc(C3=N[C@@H](C)CO3)cc2n1Cc1ccccn1 [Compound 84, (S)—N-(3,5-Difluorobenzyl)-2-isopropyl-6-(4-methyl-4,5-dihydrooxazol-2-yl)-1-(pyridin-2-ylmethyl)-1H-indole-3-carboxamide]
[1]
  IC50: 40 nM
[2]
  S1P3 (% inh): 89%

## CC(C)c1c(C(=O)NCc2ccc(F)c(F)c2)c2ccc(OC3CCOC3=O)cc2n1Cc1ccccc1 (stereo not drawn) [Compound 20, 1-Benzyl-N-(3,4-difluorobenzyl)-2-isopropyl-6-(2-oxotetrahydrofuran-3-yloxy)-1H-indole-3-carboxamide]
[1]
  IC50: 81 nM
[2]
  S1P3 (% inh): 100%

## CCNCc1ccc2c(C(=O)NCc3ccc(F)c(F)c3)c(C(C)C)n(Cc3ccccc3)c2c1
[1]
  IC50: 2500 nM
[2]
  S1P3 (% inh): 87%

## CC(C)c1c(C(=O)NCc2ccc(F)c(F)c2)c2ccc(CO)cc2n1Cc1ccccc1 [Compound 52, 1-Benzyl-N-(3,4-difluorobenzyl)-6-(hydroxymethyl)-2-isopropyl-1H-indole-3-carboxamide]
[1]
  IC50: 2000 nM
[2]
  S1P3 (% inh): 85%

## CC(C)c1c(C(=O)NCc2ccc(F)c(F)c2)c2ccc(OC3CCCC3)cc2n1Cc1ccccc1 [Compound 16, 1-Benzyl-6-(cyclopentoxy)-N-(3,4-difluorobenzyl)-2-isopropyl-1H-indole-3-carboxamide]
  Kb: 1.2 nM
  S1P3 (% inh): 3 nM (100) 1.2 nM %
read-out: S1P3 IC50
  IC50: 3 nM

## CCOC(=O)c1ccc2c(C(=O)NCc3ccccc3)c(C(C)C)n(Cc3ccccc3)c2c1
[1]
  IC50: 9 nM
[2]
  S1P3 (% inh): 96%

## Cc1cc(Cn2c(C(C)C)c(C(=O)NCc3ccc(F)c(F)c3)c3ccc(O)cc32)no1 [Compound 218, N-(3,4-Difluorobenzyl)-6-hydroxy-2-isopropyl-1-((5-methylisoxazol-3-yl)methyl)-1H-indole-3-carboxamide]
[1]
  IC50: 5400 nM
[2]
  S1P3 (% inh): 67%

## CC(C)c1c(C(=O)NCc2ccc(F)c(F)c2)c2ccc(/C=N/N(C)C)cc2n1Cc1ccccn1
[1]
  IC50: 93 nM
[2]
  S1P3 (% inh): 100%

## CC(C)Oc1ccc2c(C(=O)NCc3ccc(F)c(F)c3)c(C(C)O)n(Cc3ccccn3)c2c1 (stereo not drawn) [Compound 108, N-(3,4-Difluorobenzyl)-2-(1-hydroxyethyl)-6-isopropoxy-1-(pyridin-2-ylmethyl)-1H-indole-3-carboxamide]
[1]
  IC50: 15 nM
[2]
  S1P3 (% inh): 98%

## CC[C@H]1COC(c2ccc3c(C(=O)NCc4ccc(F)c(F)c4)c(C(C)C)n(Cc4ccccc4)c3c2)=N1 [Compound 75, (S)-1-Benzyl-N-(3,4-difluorobenzyl)-6-(4-ethyl-4,5-dihydrooxazol-2-yl)-2-isopropyl-1H-indole-3-carboxamide]
[1]
  IC50: 17 nM
[2]
  S1P3 (% inh): 97%

## CCOC(=O)c1ccc2c(C(=O)NCc3ccc(F)c(F)c3)c(C(C)C)n(Cc3ccccc3)c2c1 [Compound 43, Ethyl 1-Benzyl-3-(3,4-difluorobenzylcarbamoyl)-2-isopropyl-1H-indole-6-carboxylate]
[1]
  IC50: 7 nM
[3]
  Kb: 8 nM
[2]
  S1P3 (% inh): 100%

## CCO/N=C(\C)c1ccc2c(C(=O)NCc3ccc(F)c(F)c3)c(C(C)C)n(Cc3ccccc3)c2c1
[1]
  IC50: 262 nM
[2]
  S1P3 (% inh): 98%

## CCOC(=O)Cn1c(C(C)C)c(C(=O)NCc2ccc(F)c(F)c2)c2ccc(OC3CCCC3)cc21 [Compound 223, Ethyl 2-(6-(Cyclopentyloxy)-3-(3,4-difluorobenzylcarbamoyl)-2-isopropyl-1H-indol-1-yl)acetate]
  S1P3 (% inh): 24 nM (100) %
read-out: S1P3 IC50
  IC50: 24 nM

## CC(C)Oc1ccc2c(C(=O)NCc3ccc(F)c(F)c3)c(C(C)C)n(Cc3ccccc3)c2c1 [Compound 11, 1-Benzyl-N-(3,4-difluorobenzyl)-6-isopropoxy-2-isopropyl-1H-indole-3-carboxamide]
[3]
  Kb: 2 nM

## CC(C)c1c(C(=O)NCc2ccc(F)cc2)c2ccc(C3=N[C@@H](C)CO3)cc2n1Cc1ccccn1 [Compound 86, (S)—N-(4-Fluorobenzyl)-2-isopropyl-6-(4-methyl-4,5-dihydrooxazol-2-yl)-1-(pyridin-2-ylmethyl)-1H-indole-3-carboxamide]
[1]
  IC50: 48 nM
[2]
  S1P3 (% inh): 100%

## CC(C)c1c(C(=O)NCc2ccc(F)c(F)c2)c2ccc(Oc3nccs3)cc2n1Cc1ccccn1 [Compound 150, N-(3,4-Difluorobenzyl)-2-isopropyl-1-(pyridin-2-ylmethyl)-6-(thiazol-2-yloxy)-1H-indole-3-carboxamide]
[1]
  IC50: 5 nM
[2]
  S1P3 (% inh): 100%

## CC(C)COC(=O)c1ccc2c(C(=O)NCc3ccc(F)c(F)c3)c(C(C)C)n(Cc3ccccc3)c2c1
  IC50: 12 nM
[2]
  S1P3 (% inh): 12 nM (97) %

## CC(C)c1c(C(=O)NCc2cc(F)cc(F)c2)c2ccc(NC3CCCC3)cc2n1Cc1ccccc1 [Compound 191, 1-Benzyl-6-(cyclopentylamino)-N-(3,5-difluorobenzyl)-2-isopropyl-1H-indole-3-carboxamide]
[1]
  IC50: 38 nM
[2]
  S1P3 (% inh): 99%

## CC[C@H]1COC(c2ccc3c(C(=O)NCc4ccc(F)c(F)c4)c(C(C)C)n(Cc4ccccn4)c3c2)=N1 [Compound 80, (S)—N-(3,4-Difluorobenzyl)-6-(4-ethyl-4,5-dihydrooxazol-2-yl)-2-isopropyl-1-(pyridin-2-ylmethyl)-1H-indole-3-carboxamide]
[1]
  IC50: 7 nM
[2]
  S1P3 (% inh): 99%

## CC(C)CO/N=C/c1ccc2c(C(=O)NCc3ccc(F)c(F)c3)c(C(C)C)n(Cc3ccccc3)c2c1
[1]
  IC50: 88 nM
[2]
  S1P3 (% inh): 100%

## COCCOc1ccc2c(C(=O)NCc3ccc(F)c(F)c3)c(C(C)C)n(Cc3ccccc3)c2c1 [Compound 17, 1-Benzyl-N-(3,4-difluorobenzyl)-2-isopropyl-6-(2-methoxyethoxy)-1H-indole-3-carboxamide]
[1]
  IC50: 6.5 nM
[2]
  S1P3 (% inh): 99%

## CCOC(=O)c1ccc2c(C(=O)NCc3cccnc3)c(C(C)C)n(Cc3ccccc3)c2c1
  IC50: 187 nM
  S1P3 (% inh): 187 nM (95) %

## CC(=O)Oc1ccc2c(C(=O)NCc3ccc(F)c(F)c3)c(C(C)C)n(Cc3ccccc3)c2c1 [Compound 23, 1-Benzyl-3-(3,4-difluorobenzylcarbamoyl)-2-isopropyl-1H-indol-6-yl Acetate]
  S1P3 (% inh): 14 nM (100) %
read-out: S1P3 IC50
  IC50: 14 nM

## COCOc1ccc2c(C(=O)NCc3ccc(F)c(F)c3)c(C(C)C)n(Cc3ccccc3)c2c1 [Compound 26, 1-Benzyl-N-(3,4-difluorobenzyl)-2-isopropyl-6-(methoxymethoxy)-1H-indole-3-carboxamide]
  Kb: 13 nM
  S1P3 (% inh): 39 nM (100) 13 nM %
read-out: S1P3 IC50
  IC50: 39 nM

## CCNC(=O)c1ccc2c(C(=O)NCc3ccc(F)c(F)c3)c(C(C)C)n(Cc3ccccc3)c2c1
[1]
  IC50: 346 nM
[2]
  S1P3 (% inh): 99%

## CC(C)c1c(C(=O)NCc2cncc(F)c2)c2ccc(OC3CCCC3)cc2n1Cc1cccnc1 [Compound 163, 6-(Cyclopentyloxy)-N-((5-fluoropyridin-3-yl)methyl)-2-isopropyl-1-(pyridin-3-ylmethyl)-1H-indole-3-carboxamide]
[1]
  IC50: 55 nM
[2]
  S1P3 (% inh): 100%

## CC(C)c1c(C(=O)NCc2ccc(F)c(F)c2)c2ccc(OC3CCCC3)cc2n1Cc1ncco1 [Compound 211, 6-(Cyclopentyloxy)-N-(3,4-difluorobenzyl)-2-isopropyl-1-(oxazol-2-ylmethyl)-1H-indole-3-carboxamide]
[1]
  IC50: 10 nM
[2]
  S1P3 (% inh): 100%

## CC[C@H]1COC(c2ccc3c(C(=O)NCc4cc(F)cc(F)c4)c(C(C)C)n(Cc4ccccn4)c3c2)=N1 [Compound 85, (S)—N-(3,5-Difluorobenzyl)-6-(4-ethyl-4,5-dihydrooxazol-2-yl)-2-isopropyl-1-(pyridin-2-ylmethyl)-1H-indole-3-carboxamide]
[1]
  IC50: 18 nM
[2]
  S1P3 (% inh): 100%

## CC(C)c1c(C(=O)NCc2ccc(F)c(F)c2)c2ccc(OC3CCCO3)cc2n1Cc1ccccc1 (stereo not drawn) [Compound 27, 1-Benzyl-N-(3,4-difluorobenzyl)-2-isopropyl-6-(tetrahydrofuran-2-yloxy)-1H-indole-3-carboxamide]
  Kb: 11 nM
  S1P3 (% inh): 6 nM (100) 11 nM %
read-out: S1P3 IC50
  IC50: 6 nM
